From ChEMBL document CHEMBL1201862, “PubChem BioAssay data set” (2004)
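A five-concentration, 48-hour dose response in 96-well plates underlies each endpoint, interpolated linearly between surrounding concentrations. Abbreviation: GI50, concentration required for 50% inhibition of growth.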 Calls of active or inactive are those of the source. Rule as the data show it: active = GI50 up to about 1.1 µM and inactive = higher.

Experiments:
Experiment in all cases: NCI tumour cell line growth inhibition, 48 h
[1] = system: MOLT-4
[2] = system: RPMI-8226
[3] = system: M19-MEL
[4] = system: HCT-15
[5] = system: SNB-75
[6] = system: HT-29
[7] = system: A498
[8] = system: SF-268
[9] = system: SR
[10] = system: U-251
[11] = system: A549
[12] = system: NCI-H522
[13] = system: NCI-H226
[14] = system: SF-295
[15] = system: NCI-H23
[16] = system: SK-MEL-5
[17] = system: HL-60
[18] = system: PC-3
[19] = system: MDA-MB-435
[20] = system: MDA-MB-231

Compound	GI50 [1]	GI50 [2]	GI50 [3]	GI50 [4] [µM]	GI50 [5]	GI50 [6]	GI50 [7]	GI50 [8]	GI50 [9]	GI50 [10]	GI50 [11]	GI50 [12]	GI50 [13]	GI50 [14]	GI50 [15]	GI50 [16]	GI50 [17]	GI50 [18]	GI50 [19]	GI50 [20]
CCCCCCC(=O)OC[n+]1ccc2c(C)c3[nH]c4ccccc4c3c(C)c2c1	0.118 µM (active)	0.0785 µM (active)	1.04 µM (active)	0.348	1.85 µM (inactive)	0.347 µM (active)	1.01 µM (active)	0.61 µM (active)	0.101 µM (active)	0.552 µM (active)	0.474 µM (active)	1.56 µM (inactive)	1.46 µM (inactive)	0.836 µM (active)	0.455 µM (active)	1.56 µM (inactive)	2.23 µM (inactive)	–	–	–
CCSc1nnc(CSc2nc(-c3ccccc3)c(-c3ccccc3)[nH]2)n1-c1ccccc1	15.2 µM (inactive)	21.5 µM (inactive)	18.6 µM (inactive)	18.5	18.4 µM (inactive)	19.4 µM (inactive)	18.5 µM (inactive)	23.3 µM (inactive)	24.3 µM (inactive)	17.9 µM (inactive)	29.9 µM (inactive)	16.4 µM (inactive)	14.1 µM (inactive)	23.1 µM (inactive)	21 µM (inactive)	17.1 µM (inactive)	25.8 µM (inactive)	–	–	–
O=C(Cc1csc(-c2nc(CC(=O)NNc3ccccc3)cs2)n1)NNc1ccccc1	39.4 µM (inactive)	> 100 µM (inactive)	> 100 µM (inactive)	38.4	> 100 µM (inactive)	71.1 µM (inactive)	> 100 µM (inactive)	> 100 µM (inactive)	25.5 µM (inactive)	> 100 µM (inactive)	> 100 µM (inactive)	20.4 µM (inactive)	> 100 µM (inactive)	> 100 µM (inactive)	> 100 µM (inactive)	> 100 µM (inactive)	32 µM (inactive)	–	–	–
CC[C@@]1(O)CC(OC2CC(N3CCOCC3)C(O)C(C)O2)c2c(O)c3c(c(O)c2[C@H]1O)C(=O)c1cccc(O)c1C3=O (some centres not stated)	–	0.0897 µM (active)	0.101 µM (active)	0.0573	0.139 µM (active)	0.0902 µM (active)	0.191 µM (active)	0.122 µM (active)	0.0193 µM (active)	0.08 µM (active)	0.0267 µM (active)	0.166 µM (active)	0.0893 µM (active)	0.0575 µM (active)	0.175 µM (active)	0.0966 µM (active)	0.0311 µM (active)	0.0957 µM (active)	0.304 µM (active)	0.348 µM (active)
COc1cc2c(cc1OC)-c1cc(OC)c(OC)cc1[C@H]1CN3CCC[C@@]3(O)C=C21	< 0.0001 µM (active)	< 0.0001 µM (active)	< 0.0001 µM (active)	< 0.0001	< 0.0001 µM (active)	< 0.0001 µM (active)	< 0.0001 µM (active)	< 0.0001 µM (active)	< 0.0001 µM (active)	< 0.0001 µM (active)	< 0.0001 µM (active)	< 0.0001 µM (active)	< 0.0001 µM (active)	< 0.0001 µM (active)	< 0.0001 µM (active)	< 0.0001 µM (active)	< 0.0001 µM (active)	–	–	–
CCC(=O)NCC1(c2c[nH]c3ccccc23)SCCS1	42.4 µM (inactive)	> 100 µM (inactive)	> 100 µM (inactive)	> 100	> 100 µM (inactive)	53 µM (inactive)	> 100 µM (inactive)	> 100 µM (inactive)	> 100 µM (inactive)	> 100 µM (inactive)	> 100 µM (inactive)	> 100 µM (inactive)	> 100 µM (inactive)	> 100 µM (inactive)	> 100 µM (inactive)	> 100 µM (inactive)	> 100 µM (inactive)	–	–	–
NC(CSSCC(N)Cc1ccccc1)Cc1ccccc1 (configuration not stated)	30.1 µM (inactive)	35.3 µM (inactive)	49 µM (inactive)	66.7	> 10 µM (inactive)	44 µM (inactive)	> 100 µM (inactive)	49.4 µM (inactive)	31 µM (inactive)	84.1 µM (inactive)	65.8 µM (inactive)	15.7 µM (inactive)	–	41.5 µM (inactive)	44.4 µM (inactive)	24 µM (inactive)	32.7 µM (inactive)	–	–	–
N#CC1CCCCOCCOCCOCCOCCOCCCCCC1=O (configuration not stated)	> 100 µM (inactive)	> 100 µM (inactive)	> 100 µM (inactive)	> 100	> 100 µM (inactive)	> 100 µM (inactive)	> 100 µM (inactive)	> 100 µM (inactive)	> 100 µM (inactive)	> 100 µM (inactive)	> 100 µM (inactive)	> 100 µM (inactive)	> 100 µM (inactive)	> 100 µM (inactive)	> 100 µM (inactive)	> 100 µM (inactive)	> 100 µM (inactive)	–	–	–
